A word on the ED50: it is the midpoint of the dose-response relation.

Holding throughout (type): functional
Experiment [1] has as its system Macrophomina phaseolina. Briefly: Fungicidal activity against Macrophomina phaseolina in non-grafted Melon plants cv. 6405 plots infested with Macrophomina phaseolina assessed as disease incidence exposed to compound at 250 ml/1000 m2 of commercial product applied as soil drench to crown zone three times during growing season 21 to 49 days after transplanting (reference value: 23%).

In experiment [2] the test system is Macrophomina phaseolina. Put plainly: Fungicidal activity against Macrophomina phaseolina in non-grafted Melon plants cv. 6405 plots infested with Macrophomina phaseolina assessed as disease incidence exposed to compound at 250 ml/1000 m2 of commercial product applied as soil drench to crown zone 2 times during growing season 44 to 56 days after seeding (reference value: 45%).

For experiment [3], the system named is Macrophomina phaseolina. Put plainly: Fungicidal activity against Macrophomina phaseolina in non-grafted Melon plants cv. 6405 plots infested with Macrophomina phaseolina assessed as disease incidence exposed to compound at 250 ml/1000 m2 of commercial product applied as soil drench to crown zone 1 time during growing season 44 to 56 days after seeding (reference value: 45%).

In experiment [4] the test system is Macrophomina phaseolina. Briefly: Fungicidal activity against Macrophomina phaseolina assessed as mycelial growth inhibition incubated at 27 degC for 5 days. Particulars: 120 h.
Experiment [5] has as its system Macrophomina phaseolina. Put plainly: Fungicidal activity against Macrophomina phaseolina in non-grafted Melon plants cv. 6405 plots assessed as disease incidence exposed to compound at 200 ml/1000 m2 of commercial product applied as soil drench three times during growing season (reference value: 65%).
The subject of experiment [6] is Macrophomina phaseolina. Briefly: Fungicidal activity against Macrophomina phaseolina in non-grafted Melon plants cv. 6405 plots assessed as disease incidence exposed to compound at 100 ml/1000 m2 of commercial product applied as soil drench three times during growing season (reference value: 65%).
Experiment [7] concerns Macrophomina phaseolina. Briefly: Fungicidal activity against Macrophomina phaseolina in non-grafted Melon plants cv. 6405 plots assessed as disease incidence exposed to compound at 250 ml/1000 m2 of commercial product applied as soil drench three times during growing season (reference value: 65%).
The subject of experiment [8] is Macrophomina phaseolina. Briefly: Fungicidal activity against Macrophomina phaseolina in non-grafted Melon plants cv. 6405 plots infested with Macrophomina phaseolina assessed as disease incidence exposed to compound at 40 ml/1000 m2 of commercial product applied as soil drench to crown zone three times during growing season 21 to 49 days after transplanting (reference value: 23%).

Experiment [9] concerns Macrophomina phaseolina. Briefly: Fungicidal activity against Macrophomina phaseolina in non-grafted Melon plants cv. 6405 plots infested with Macrophomina phaseolina assessed as disease incidence exposed to compound at 40 ml/1000 m2 of commercial product applied as soil drench to crown zone 2 times during growing season 44 to 56 days after seeding (reference value: 45%).

In experiment [10] the test system is Macrophomina phaseolina. Put plainly: Fungicidal activity against Macrophomina phaseolina in non-grafted Melon plants cv. 6405 plots assessed as disease incidence exposed to compound at 300 ml/1000 m2 of commercial product applied as soil drench three times during growing season (reference value: 65%).
Experiment [11] concerns Macrophomina phaseolina. Put plainly: Fungicidal activity against Macrophomina phaseolina in non-grafted Melon plants cv. 6405 plots assessed as disease incidence exposed to compound at 350 ml/1000 m2 of commercial product applied as soil drench three times during growing season (reference value: 65%).

Each structure is given as a SMILES string. Where only a bound is given, the exact number is not on record here.

Take `CO/C=C(/C(=O)OC)c1ccccc1Oc1cc(Oc2ccccc2C#N)ncn1` [AZOXYSTROBIN]: the Activity is reported as 3% in experiment [1], 5% in [2], 15% in [3] and 5% in experiment [5]. The median effective dose (ED50) in [4] stood at 0.38 mg/kg.

As for `N#Cc1c(Cl)c(Cl)c(Cl)c(C#N)c1Cl` [CHLOROTHALONIL], the 50% effective dose (ED50) in [4] was determined as 0.61 mg/kg.

Turning to `O=C(Cc1ccccc1)N/C(=N\OCC1CC1)c1c(C(F)(F)F)ccc(F)c1F` [CYFLUFENAMID], the Activity in [6] is recorded as 60%. Also, the ED50 in experiment [4] was less than 0.01 mg/kg.

For `O=[N+]([O-])c1cc(C(F)(F)F)c(Cl)c([N+](=O)[O-])c1Nc1ncc(C(F)(F)F)cc1Cl` [FLUAZINAM], the ED50 in experiment [4] is less than 0.01 mg/kg.

Take `OC(Cn1cncn1)(c1ccc(F)cc1)c1ccccc1F` (configuration not stated) [FLUTRIAFOL]: the Activity in experiment [7] came to 50%. In experiment [4], the ED50 stood at 13.1 mg/kg.

In the case of `CC(C)NC(=O)N1CC(=O)N(c2cc(Cl)cc(Cl)c2)C1=O` [IPRODIONE], the ED50 in experiment [4] is 0.03 mg/kg. For the same compound, the Activity in experiment [5] was 35%.

In the case of `COCC(=O)N(c1c(C)cccc1C)[C@H](C)C(=O)OC` [MEFENOXAM], the Activity is listed as 10% in [8], 50% in [9] and 10% in experiment [10]. The ED50 in experiment [4] is more than 10 mg/kg.

On to `CCCCC(C#N)(Cn1cncn1)c1ccc(Cl)cc1` (configuration not stated) [MYCLOBUTANIL], for which, in [4], the median effective dose (ED50) was 0.26 mg/kg. Moreover, the Activity in [5] was determined as 45%.

With `CCCN(CCOc1c(Cl)cc(Cl)cc1Cl)C(=O)n1ccnc1` [PROCHLORAZ], in experiment [7], the Activity is 35%. The ED50 in experiment [4] turned out to be 0.04 mg/kg.

Take `CCCOC(=O)NCCCN(C)C.Cl` [PROPAMOCARB HYDROCHLORIDE]: in experiment [11], the Activity is reported as 30%. Further, in [4], the ED50 is 0.9 mg/kg.

Regarding `FC(F)C(F)(F)OCC(Cn1cncn1)c1ccc(Cl)cc1Cl` (configuration not stated) [TETRACONAZOLE], in experiment [10], the Activity amounted to 15%. For the same compound, the ED50 in experiment [4] is 2.96 mg/kg.

Regarding `O=CNC(N1CCN(C(NC=O)C(Cl)(Cl)Cl)CC1)C(Cl)(Cl)Cl` (configuration not stated) [TRIFORINE], in experiment [7], the Activity was 25%. Also, the ED50 in experiment [4] was determined as 1 mg/kg.
